Experimental data taken from US5326902A, “Oxyalkyne compounds, pharmaceutical compositions containing them and processes for preparing such compounds and compositions” (Gruenenthal GmbH, priority 1992, dated 1994).

Assays:
5-lipoxygenase [1] = target: T1, 5-lipoxygenase (Rattus norvegicus, UniProt P12527); assay: Inhibition of Cell-free 5-lipoxygenase from RBL-1-cells (polarographic, 10,000 × g supernatant); assay type: biochemical; details: 10,000 × g supernatant of homogenized RBL-1-cells; arachidonic acid 75 μM; 35° C.; calculated IC50
T1 construct: endogenous in cells; host or cells: RBL-1 cells (rat basophilic leukemia)
T1 sequence (P12527 1-673): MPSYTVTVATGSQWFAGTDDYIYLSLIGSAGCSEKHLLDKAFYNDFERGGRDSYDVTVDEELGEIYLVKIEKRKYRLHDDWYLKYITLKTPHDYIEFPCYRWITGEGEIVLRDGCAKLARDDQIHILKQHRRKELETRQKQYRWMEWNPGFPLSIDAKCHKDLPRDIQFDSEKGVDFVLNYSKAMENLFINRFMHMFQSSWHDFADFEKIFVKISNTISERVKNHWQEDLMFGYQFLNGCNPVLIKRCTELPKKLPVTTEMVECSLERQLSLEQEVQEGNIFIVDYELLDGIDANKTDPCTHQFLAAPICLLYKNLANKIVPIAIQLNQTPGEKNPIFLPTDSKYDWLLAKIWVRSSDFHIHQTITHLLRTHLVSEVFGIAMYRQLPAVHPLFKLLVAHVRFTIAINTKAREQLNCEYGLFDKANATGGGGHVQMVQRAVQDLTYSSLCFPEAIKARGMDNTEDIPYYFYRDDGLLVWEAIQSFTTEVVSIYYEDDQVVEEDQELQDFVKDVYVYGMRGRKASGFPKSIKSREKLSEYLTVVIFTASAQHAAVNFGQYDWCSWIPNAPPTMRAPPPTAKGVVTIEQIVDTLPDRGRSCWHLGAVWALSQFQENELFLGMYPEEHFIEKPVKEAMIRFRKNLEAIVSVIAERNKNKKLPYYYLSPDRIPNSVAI
Method: Cell-free 5-lipoxygenase was polarographically measured from 10,000 × g supernatant of homogenized rat basophilic leucemia cells (M. Haurand & L. Flohe in Biol. Chem. Hoppe-Seyler 369, 133 to 142 (1988)). After preincubation of the 10,000 × g supernatant with arachidonic acid (75 μM), ATP (adenosine triphosphate; 4 mM), reduced glutathione (4 mM), and either a compound according to the invention (0.1 to 100 μM) or a solvent (ethanol and/or dimethyl sulfoxide) at 35° C. for 5 minutes, the lipoxygenase reaction was initiated by addition of calcium chloride (3 mM) and simultaneously recorded.
The activity of 5-lipoxygenase was determined from the difference in the pO2 -decrease before and after addition of calcium chloride. The evaluation included the initial rate of the reaction after the lag-phase as well as the duration of the lag-phase. In the concentration range of from 3 to 50 μM, the test substances induced lag-phases between 20 and 60 seconds.

5-lipoxygenase [2] = target: T1, 5-lipoxygenase; assay: Inhibition of 5-lipoxygenase in RBL-1-cells; assay type: cell-based; details: 20 μM [14C]-arachidonic acid, 20 μM calcium ionophore A 23 187, 10 minutes
Method: To determine the inhibition of 5-lipoxygenase, rat basophilic leukemia cells (RBL-1-cells) were cultured in vitro, harvested by centrifugation, washed with 50 mM potassium phosphate buffer of pH 7.4, and then suspended in this buffer at 1×10^7 cells/ml. Indomethacin (10 μM) and calcium chloride (2 mM) were added to 1 ml portions of this suspension, and then the mixture was incubated either in the presence of a compound according to the invention in a concentration range of from 0,1 μM to 100 μM or in the presence of a solvent (ethanol and/or dimethyl sulfoxide) for 3 minutes and thereafter with 20 μM of [^14 C]-arachidonic acid and 20 μM of calcium ionophore A 23 187 for 10 minutes. The reaction was stopped by adding 20 μl of glacial acetic acid, and then the mixture was extracted with ethyl acetate to isolate the metabolites of arachidonic acid formed by the enzymatic action of 5-lipoxygenase. These were separated by thin layer chromatography using a solvent mixture known to be suitable for lipoxygenase products [c.f. Jakschik et al., Biochem. Biophys. Res. Commun. 102, 624 (1981)].
The distribution of radioactivity among the different metabolites of arachidonic acid was measured using a TLC Linear Analyzer. By correlating the percentage amounts of the products formed under the action of 5-lipoxygenase (5HETE, isomers of LTB4) in the absence as well as in the presence of different concentrations of compounds according to the invention, the IC50 -values, i.e. the concentrations which cause a 50% inhibition of 5-lipoxygenase, were determined graphically from semilogarithmic plots.

[3] = system: bronchoconstriction elicited by ovalbumin; assay: Allergen-induced bronchoconstriction in guinea pigs (Konzett-Rossler); assay type: in vivo, guinea pig; details: Cavia porcellus, 1 h; oral, 60 minutes before ovalbumin (0.2 mg/kg intravenous); passively sensitized guinea pigs; read-out: ED40-Value (40% average inhibition of the bronchoconstriction elicited by ovalbumin)
Method: The anti-asthmatic effect of compounds according to the invention was tested in anesthetized and ventilated guinea pigs. To induce an asthmatic reaction, the animals were passively sensitized by a single intraperitoneal injection of anti-ovalbumin serum. After 48 hours, the asthmatic reaction was elicited by intravenous challenge with 0.2 mg/kg of ovalbumin. The immediately resulting bronchoconstriction was measured as an increase in intratracheal pressure. Effects caused by histamine, serotonin and sympathic counterreaction were eliminated by intravenous pretreatment with 2.15 mg/kg of mepyramine, 46.4 μg/kg of propranolol, 4.64 mg/kg of atropine and 1 mg/kg of methysergide, all administered 5 minutes before challenge. Compounds according to the invention were administered orally 60 minutes before the administration of ovalbumin. The following […] for the inhibition of the bronchoconstriction elicited by ovalbumin, i.e. the effective doses causing a 40% average inhibition of the bronchoconstriction, were determined: […]

5-lipoxygenase [4] = assay: Inhibition of 5-lipoxygenase in Rat Blood After Oral Administration (ex vivo iLTB4-formation); details: male Wistar rats, one hour after administration
Method: The bioavailability of the compounds of formula I as 5-lipoxygenase inhibitors was characterized by means of an ex vivo biochemical assay method described by Tateson et al. in Brit. J. Pharmacol. 94, 528 (1988): A compound of formula I was orally administered to male rats (Wistar strain) at a dose of 21.5 mg/kg. After lethal CO2 -narcosis one hour after administration, the rats were bled by heart puncture with added heparin as an anticoagulant. Aliquots of the whole blood were incubated at 37° C. for 30 minutes in a water bath with calcium ionophore A 23 187 at an end concentration of 15 μg/ml. At the end of the incubation, the samples were centrifuged, and the concentration of the immunoreactive LTB4 (iLTB4) in aliquots of cell-free plasma was determined by radioimmunoassay (3H-LTB4 -RIA, Amersham). To enable calculation of the inhibition in percent of ex vivo iLTB4 -formation in whole rat blood treated with a compound according to the invention, rats orally treated with an appropriate vehicle solution were included in all experiments, and aliquots of their blood were run in parallel and were processed in the same way as described. The average iLTB4 -content of the plasma of the vehicletreated rats served as a 100% value. The activity in percent of the ex vivo iLTB4 -formation after oral administration of a compound according to the invention was calculated by dividing the average value of the iLTB4 -contents in ng iLTB4 /ml of the group treated with a compound according to the invention by the average value of the iLTB4 -contents in ng iLTB4 /ml of the vehicle treated group and subsequent multiplication by a factor of 100. The respective inhibition in percent was calculated by subtracting the activity in percent from 100.

Compound | IC50 (5-lipoxygenase [1]) [µM] | IC50 (5-lipoxygenase [2]) [µM] | further results
CC(=O)N(O)Cc1ccc(C(O)C#Cc2ccccc2)cc1 (single isomer, unassigned; (-)) [Example 3, (-)-N-Hydroxy-N-[4-[1-hydroxy-3-phenyl-prop-2-yn-1-yl]benzyl]acetamide] |  | 5 | ED40 [3]: 9 mg/kg
NC(=O)N(O)Cc1ccc(C(O)C#Cc2ccccc2Cl)cc1 (centres unmarked) [Example 22, N-Hydroxy-N-[4-[1-hydroxy-3-(2-chlorophenyl)prop-2-yn-1-yl]benzyl]urea] | 8 | 4 | Inhibition [%] of ex vivo iLTB4-formation (5-lipoxygenase [4]; dose 10 mg/kg, oral): 83%
CC(=O)N(O)Cc1ccc(C(O)C#Cc2ccsc2)cc1 (centres unmarked) [Example 17, N-Hydroxy-N-[4-[1-hydroxy-3-(3-thienyl)prop-2-yn-1-yl]benzyl]acetamide] |  | 5 | Inhibition [%] of ex vivo iLTB4-formation (5-lipoxygenase [4]; 21.5 mg/kg oral): 77%
CC(=O)N(O)C(C)c1ccc(C(O)C#Cc2ccccc2)cc1 (centres unmarked) [Example 6, N-Hydroxy-N-[1-[4-(1-hydroxy-3-phenyl-prop-2-yn-1-yl)phenyl]ethyl]acetamide] | 8 |  | 
NC(=O)N(O)Cc1cccc(C(O)C#Cc2ccccc2)c1 (centres unmarked) [Example 29, N-Hydroxy-N-[3-[1-hydroxy-3-phenyl-prop-2-yn-1-yl]benzyl]urea] |  | 4 | 
CC(=O)OC(C#Cc1ccccc1)c1ccc(CN(O)C(C)=O)cc1 (centres unmarked) [Example 4, N-Hydroxy-N-[4-[1-acetoxy-3-phenyl-prop-2-yn-1-yl]benzyl]acetamide] | 9 | 4 | 
NC(=O)N(O)Cc1ccc(C(O)C#Cc2cccc(Cl)c2)cc1 (centres unmarked) [Example 23, N-Hydroxy-N-[4-[1-hydroxy-3-(3-chlorophenyl)prop-2-yn-1-yl]benzyl]urea] |  | 4 | ED40 [3]: 18 mg/kg
CC(=O)N(O)Cc1ccc(C(O)C#Cc2ccc(Cl)cc2)cc1 (centres unmarked) [Example 11, N-Hydroxy-N-[4-[1-hydroxy-3-(4-chlorophenyl)prop-2-yn-1-yl]benzyl]acetamide] |  | 8 | Inhibition [%] of ex vivo iLTB4-formation (5-lipoxygenase [4]; dose 10 mg/kg, oral): 95%
NC(=O)N(O)Cc1ccc(C(O)C#Cc2cccs2)cc1 (centres unmarked) [Example 27, N-Hydroxy-N-[4-[1-hydroxy-3-(2-thienyl)prop-2-yn-1-yl]benzyl]urea] |  | 3 | 
CC(=O)N(O)Cc1ccc(C(O)C#Cc2cccc(Cl)c2)cc1 (centres unmarked) [Example 10, N-Hydroxy-N-[4-[1-hydroxy-3-(3-chlorophenyl)prop-2-yn-1-yl]benzyl]acetamide] |  | 4 | Inhibition [%] of ex vivo iLTB4-formation (5-lipoxygenase [4]; 21.5 mg/kg oral): 75%
NC(=O)N(O)Cc1ccc(C(O)C#Cc2ccc(Cl)cc2)cc1 (centres unmarked) [Example 24, N-Hydroxy-N-[4-[1-hydroxy-3-(4-chlorophenyl)prop-2-yn-1-yl]benzyl]urea] |  | 3 | 

Further lines, with some results ahead:

IC50 (5-lipoxygenase [1]) [µM] | IC50 (5-lipoxygenase [2]) [µM] | Compound | further results
7 |  | CC(=O)N(O)Cc1cccc(C(O)C#Cc2ccsc2)c1 (centres unmarked) [Example 20, N-Hydroxy-N-[3-[1-hydroxy-3-(3-thienyl)prop-2-yn-1-yl]benzyl]acetamide] | 
5 | 4 | CCOC(C#Cc1ccccc1)c1ccc(CN(O)C(C)=O)cc1 (centres unmarked) [Example 5] | 
 | 4 | COc1cccc(C#CC(O)c2ccc(CN(O)C(N)=O)cc2)c1 (centres unmarked) [Example 26, N-Hydroxy-N-[4-[1-hydroxy-3-(3-methoxyphenyl)prop-2-yn-1-yl]benzyl]urea] | ED40 [3]: 17 mg/kg
 | 4 | NC(=O)N(O)Cc1ccc(C(O)C#Cc2ccsc2)cc1 (centres unmarked) [Example 28, N-Hydroxy-N-[4-[1-hydroxy-3-(3-thienyl)prop-2-yn-1-yl]benzyl]urea] | ED40 [3]: 17 mg/kg
7 | 3 | CC(=O)N(O)Cc1ccc(C(O)C#Cc2cccc3ccccc23)cc1 (centres unmarked) [Example 15, N-Hydroxy-N-[4-[1-hydroxy-3-(1-naphthyl)prop-2-yn-1-yl]benzyl]acetamide] | Inhibition [%] of ex vivo iLTB4-formation (5-lipoxygenase [4]; 21.5 mg/kg oral): 71%
 | 4 | CC(=O)N(O)Cc1ccc(C(O)C#Cc2ccccc2Cl)cc1 (centres unmarked) [Example 9, N-Hydroxy-N-[4-[1-hydroxy-3-(2-chlorophenyl)prop-2-yn-1-yl]benzyl]acetamide] | 
3 | 3 | COc1cccc(C#CC(O)c2ccc(CN(O)C(C)=O)cc2)c1 (centres unmarked) [Example 13, N-Hydroxy-N-[4-[1-hydroxy-3-(3-methoxyphenyl)prop-2-yn-1-yl]benzyl]acetamide] | 
 | 3 | CC(=O)N(O)Cc1cccc(C(O)C#Cc2ccccc2)c1 (centres unmarked) [Example 19, N-Hydroxy-N-[3-[1-hydroxy-3-phenyl-prop-2-yn-1-yl]benzyl]acetamide] | 
 | 4 | CC(=O)N(O)Cc1ccc(C(O)C#Cc2ccccc2)cc1 (single isomer, unassigned; (+)) [Example 2, (+)-N-Hydroxy-N-[4-[1-hydroxy-3-phenyl-prop-2-yn-1-yl]benzyl]acetamide] | 
5 | 3 | CCOC(C#Cc1cccs1)c1ccc(CN(O)C(N)=O)cc1 (centres unmarked) [Example 35, N-Hydroxy-N-[4-[1-ethoxy-3-(2-thienyl)prop-2yn-1-yl]benzyl]urea] | 
6 | 5 | CCOC(C#Cc1ccc(OC)c(OC)c1)c1ccc(CN(O)C(C)=O)cc1 (centres unmarked) [Example 33, N-Hydroxy-N-[4-[1-ethoxy-3-(3,4-dimethoxyphenyl)prop-2-yn-1-yl]benzyl]acetamide] | 
